In PMC11595998, “Characterization of a New Hsp110 Inhibitor as a Potential Antifungal” (Journal of Fungi, 2024):
Numbered stars: 1 amine (or outer) side, 2 acyl side, 3 side chain; on linkers, the order of the positions; unused ones are H or OH. Bridge positions count the residues as written; N and C are the ends. Square brackets hold non-standard residues; d marks the D form. Peptide text beside a SMILES is read from it. * marks the point of attachment. pTerphenylCO(4''-OnC5H11) = CCCCCOc1ccc(-c2ccc(-c3ccc(C(=O)*)cc3)cc2)cc1; Orn(4R-OH,5R-OH) = O=C([C@H](C[C@@H](O)[C@@H](O)N[*:3])N[*:1])[*:2]; hTyr(3S-OH,4S-OH) = N[C@H](C(=O)O)[C@H](O)[C@@H](O)c1ccc(O)cc1; Pro(3S-OH,4S-Me) = C[C@H]1CN[C@H](C(=O)O)[C@H]1O; Hyp = O=C(O)[C@@H]1C[C@@H](O)CN1

Columns and labels:
[1] = tested on: C. albicans strain SC5314; experiment: Checkerboard synergy test (FICI) of 2H with common antifungals; format: cell-based, Candida albicans; details: combination with 2H; SC5314, YNB medium, 37 °C, 24 h; synergy FICI ≤ 0.5, additive or indifferent > 0.5 and < 2, antagonistic > 2
Procedure: The assay was carried out as published previously. SC5314, the most widely-used wild-type C. albicans strain, was obtained from Dr. Ronda Rolfes (Georgetown University). An aliquot of SC5314 was thawed and grown overnight in Sabouraud medium at 30 °C. After harvesting by centrifugation at 1200× g for 5 min, the cells were washed twice using PBS. Afterward, the inoculum was prepared in the YNB medium, a yeast synthetic medium, with an OD600 of 0.0005 (corresponding to 5 × 10^3–1 × 10^4 colony forming units (CFU)). Five common antifungals (Amphotericin B, Anidulafungin, Flucytosine, Clotrimazole, and Itraconazole) were prepared in either DMSO or ddH2O according to the manufacturer’s instructions. The antifungal drugs were serially diluted in DMSO or ddH2O and added to wells containing 100 µL inoculum in sterile 96-well culture plates. In addition, serial dilutions of 2H were added in combination with the above antifungals. Wells without any compounds were used as growth controls. Incubation at 37 °C followed, and optical density measurements at 600 nm were taken after 24 h with wells containing only medium as blanks. The fractional inhibitory concentration index (FICI) was calculated to test the synergistic effect between each of these common antifungals with 2H according to the published protocols.
A checkerboard (or chequerboard) assay was carried out to assess the fractional inhibitory concentration index (FICI). The widely-used wild-type C. albicans strain SC5314 was used. […] More antifungals may need to be examined to find potential synergistic effects with 2H.
Figure 1 Synergy testing between 2H and several common antifungal drugs (A–E); Checkerboard analysis of antifungal activity for combination of 2H and several common antifungals. The heat-map plots of relative growth (calculated by setting the growth without compounds as 100%) were presented: (A) Amphotericin B; (B) Anidulafungin; (C) Flucytosine; (D) Clotrimazole; (E) Itraconazole. Color scale for relative growth is provided on the right. (F) The Fractional Inhibitory Concentration Index (FICI) for the combination of 2H and several common antifungals. The FICI is interpreted as follows: a synergistic effect when FICI ≤ 0.5; an additive or indifferent effect when FICI > 0.5 and <2; an antagonistic effect when FICI > 2. TEXT PRINTED IN THE PICTURE: (F) Amphotericin B: FICI: 1.077±0.060 | (F) Anidulafungin: FICI: 1.108±0.084 | (F) Clotrimazole: FICI: 0.741±0.092 | (F) Flucytosine: FICI: 1.261±0.075 | (F) Itraconazole: FICI: 0.862±0.013

[2] = tested on: C. neoformans Type Strain H99; experiment: Antifungal susceptibility (growth) test, MIC90; format: cell-based, Cryptococcus neoformans; details: H99, YNB medium, 37 °C, 48 h
Procedure: (§1) We followed the Clinical and Laboratory Standards Institute for yeasts (CLSI M27 [80]) and our previously published protocol for the determination of MIC and MFC [33]. The C. neoformans Type Strain H99 was obtained from the laboratory of Dr. Joseph Heitman (Duke University). After growing in Sabouraud medium, this strain was resuspended in 35% glycerol, aliquoted, flash-frozen in liquid nitrogen, and stored in a −80 °C freezer.
(§2) For each experiment, a 100 µL frozen aliquot of H99 was thawed and diluted into 5 mL Sabouraud medium. After being grown at 30 °C overnight, the culture was pelleted and washed twice using PBS at room temperature. The inoculum was prepared using the YNB medium, a yeast synthetic medium, with 5 × 10^3–1 × 10^4 colony forming units (CFU) (corresponding to an OD600 of 0.0005). Sterile 96-well culture plates were used for growth tests. After aliquoting 100 µL of the inoculum into each well, serial dilutions of 2H or fluconazole were added to the wells and mixed well by pipetting up and down. After shaking at 37 °C for 48 h, growth was measured by absorbance at 600 nm using a spectrophotometric plate reader. Wells with only medium were used as blanks and wells with only inoculum were used as growth controls. […]
(§3) Figure 3 2H inhibits the growth of Cryptococcus neoformans and is fungicidal. […] (B) The MIC90 and MFC of 2H were determined on C. neoformans strain H99. […]

[3] = tested on: C. neoformans Type Strain H99; experiment: Viability test, minimum fungicidal concentration (MFC); format: cell-based, Cryptococcus neoformans
Procedure: as §1, §2, §3

[4] = tested on: C. albicans strain SC5314; set-up: method as in PMID 37173314; details: combination with 2H; previous test; cited from earlier work

Structure (SMILES)	Fractional Inhibitory Concentration Index (FICI) [1]	also measured
C[C@@H]1[C@H](O)[C@@H](C)/C=C/C=C/C=C/C=C/C=C/C=C/C=C/[C@H](O[C@@H]2O[C@H](C)[C@@H](O)[C@H](N)[C@@H]2O)C[C@@H]2O[C@](O)(C[C@@H](O)C[C@@H](O)[C@H](O)CC[C@@H](O)C[C@@H](O)CC(=O)O[C@H]1C)C[C@H](O)[C@H]2C(=O)O [Amphotericin B]	1.077±0.060	
CCCCCOc1ccc(-c2ccc(-c3ccc(C(=O)N[C@H]4C[C@@H](O)[C@@H](O)NC(=O)[C@@H]5[C@@H](O)[C@@H](C)CN5C(=O)[C@H]([C@@H](C)O)NC(=O)[C@H]([C@H](O)[C@@H](O)c5ccc(O)cc5)NC(=O)[C@@H]5C[C@@H](O)CN5C(=O)[C@H]([C@@H](C)O)NC4=O)cc3)cc2)cc1 [Anidulafungin] ({pTerphenylCO(4''-OnC5H11)}-[Orn(4R-OH,5R-OH)]T[Hyp][hTyr(3S-OH,4S-OH)]T[Pro(3S-OH,4S-Me)]; lactam 1-C)	1.108±0.084	
Clc1ccccc1C(c1ccccc1)(c1ccccc1)n1ccnc1 [Clotrimazole]	0.741±0.092	
OC(Cn1cncn1)(Cn1cncn1)c1ccc(F)cc1F [Fluconazole]		MIC90 (minimum inhibitory concentration for 90% inhibition) [2]: 16 µM; Fungicidal or fungistatic [3]: fungistatic; Synergistic effect between 2H and fluconazole [4]: no apparent synergistic effect
Nc1[nH]c(=O)ncc1F [Flucytosine]	1.261±0.075	
CCC(C)n1ncn(-c2ccc(N3CCN(c4ccc(OCC5COC(Cn6cncn6)(c6ccc(Cl)cc6Cl)O5)cc4)CC3)cc2)c1=O (centres unmarked) [Itraconazole]	0.862±0.013	
